The structures appear in SMILES notation. Entries after “also recorded” stand apart in the source; their conditions may differ.

One experiment has as its system Akt. Nature of the experiment: Akt activation in PC12 cells (anti-phospho Akt immunoblot). Format: cell-based. Conditions: PC12 cells; adenosine 10 μM; CGS 21680 data not shown. Here is the method: PC12 cells (615) were treated with adenosine (10 μM) for various times in the presence or absence of […] (100 nM) or LY294002 (10 μM). The cells were subsequently harvested in lysis buffer; lysates and immunoprecipitated samples were subsequently immunoblotted with anti-phospho MAP kinase, anti-phospho Akt, and anti-phosphotyrosine. Reprobing with anti-MAP kinase and anti-pan-Trk antibodies was carried out to ensure equal protein loading. To assess the activity of Akt, endogenous Akt can be immunoprecipitated from lysates with anti-Akt and the proteins assayed in Western blots with anti-phospho-Akt antibodies. Use of the anti-Akt antibody versus the anti-phospho-Akt antibody on lysates can give a comparative assessment of the relative level of the enzyme and extent of activation (Kim et al., 2001). […] and Immunoblotting. PC12 cells or PC12-615 cells (Hempstead et al, 1992), were maintained in Dulbecco's Modified Eagle's Medium (DMEM) containing 10% fetal bovine serum (FBS) supplemented with 100 units/ml penicillin, 100 μg/ml streptomycin, and 2 mM glutamine plus 200 μg/ml G418. Cells were placed in low serum medium (1% FBS, 0.5% horse serum) overnight prior to experiments. Cell lysates from PC12, 615 cells, or hippocampal cells were incubated in lysis buffer (1% NP40) for 4 hours to overnight at 4° C. with anti-pan-Trk polyclonal antibody, followed by incubation with protein A-Sepharose beads. Equivalent amounts of protein were analyzed for each condition. The beads' were washed five times with lysis buffer and the immune complexes were boiled in SDS-sample buffer and loaded on sodium dodecyl sulfate-polyacrylamide electrophoresis (SDS-PAGE) gels for immunoblot analysis. The immunoreactive protein bands were detected by ECL reagents based upon enhanced chemiluminescence procedure (Amersham Pharmacia).
A general note: In western blotting, separated proteins are transferred to a membrane and probed.

The subject of the next experiment is TrkB receptors. In words: Trk receptor phosphorylation in primary E17 hippocampal neurons (immunoprecipitation, anti-phosphotyrosine Western blot). Format: cell-based, rat. As to conditions: two hours. Here is the method: FIGS. 4A and 4B show Western blots on adenosine activation of Trk receptors in hippocampal neurons. Primary cultures of E17 hippocampal neurons were prepared as described in the Materials and Methods of Example 1 and treated with (FIG. 4A) CGS 21680 (10 nM) or BDNF (1 ng/ml) for various times and (FIG. 4B) either adenosine (10 μM), CGS 21680 (10 nM), CPA (10 nM) or BDNF (10 ng/ml) for 2 hr. Activation of TrkA receptors was assessed by immunoprecipitation and Western blotting with anti-phosphotyrosine antibody.
(§1) Immunoprotection and Immunoblotting. PC12 cells or PC12-615 cells (Hempstead et al, 1992), were maintained in Dulbecco's Modified Eagle's Medium (DMEM) containing 10% fetal bovine serum (FBS) supplemented with 100 units/ml penicillin, 100 μg/ml streptomycin, and 2 mM glutamine plus 200 μg/ml G418. Cells were placed in low serum medium (1% FBS, 0.5% horse serum) overnight prior to experiments. Cell lysates from PC12, 615 cells, or hippocampal cells were incubated in lysis buffer (1% NP40) for 4 hours to overnight at 4° C. with anti-pan-Trk polyclonal antibody, followed by incubation with protein A-Sepharose beads. Equivalent amounts of protein were analyzed for each condition. The beads' were washed five times with lysis buffer and the immune complexes were boiled in SDS-sample buffer and loaded on sodium dodecyl sulfate-polyacrylamide electrophoresis (SDS-PAGE) gels for immunoblot analysis. The immunoreactive protein bands were detected by ECL reagents based upon enhanced chemiluminescence procedure (Amersham Pharmacia).
Hippocampal Cell Cultures. Dissociated primary cultures of hippocampal neurons from embryonic day 17 (E17) rats were prepared from timed-pregnant Sprague-Dawley rats as described previously (Aibel et al, 1998). Fetuses were removed under sterile conditions and kept in PBS on ice for microscopic dissection of the hippocampus. The meninges were removed and the tissue was placed in Neurobasal media (Gibco BRL). […] Cells were counted and then plated on culture wells coated with 0.01 mg/ml poly-D-lysine overnight. […]

For a further experiment, the system named is TrkA receptors. Nature of the experiment: TrkA receptor tyrosine phosphorylation in PC12 (615) cells (anti-pan-Trk immunoprecipitation, PY99 anti-phosphotyrosine immunoblot). Format: cell-based. Conditions: PC12 (615) cells. Here is the method: Stably transfected PC12 cells expressing high levels of TrkA (615) were treated with the indicated compounds for 2 hours. The cells were subsequently harvested in lysis buffer as described in the Materials and Methods of Example 1. Lysates were immunoprecipitated with anti-pan Trk rabbit antiserum. Immunocomplexes were analyzed by immunoblotting with anti-phosphotyrosine antibody (PY99).
In FIG. 2A, different concentrations of adenosine were administered to PC12615 cells for 2 hours or NGF (1 ng/ ml) for 10 min. Cells were also treated with CGS21680 at the indicated dose for 2 hours. In FIG. 2B, PC12 cells (615) were treated with adenosine (10 μM) for various times or with 5 ng/ml NGF for 10 min. Phosphorylated TrkA receptors were detected by immunoblot analysis using PY99 anti-phosphotyrosine antibodies. The amount of Trk receptors in each condition was verified by immunoblotting.
In FIG. 3A, PC12 cells (615) were treated with the A2A agonist CGS 21680 (10 nM) and an A1 agonist CPA (10 nM) for 2 hr. ZM 241385 (10 nM), an A2A antagonist, was incubated with the cells for 15 min prior to treatment with adenosine (10 μM) for 2 hours. In FIG. 3B, PC12 cells (615) were incubated with the indicated concentrations of PP1, a Src family kinase inhibitor (Hanke et al, 1996), for 30 min, and then treated with adenosine (10 μM) for 2 hours. Activation of TrkA was assessed by immunoprecipitation and immunoblot analysis using PY99 anti-phosphotyrosine antibody.
In FIG. 7A, different concentrations of PACAP27 were administered to PC12 (615) cells for 2 hours or NGF (5 ng/ml) for 10 min. […] Phosphorylated TrkA receptors were detected by immunoblot analysis using PY99 anti-phosphotyrosine antibodies. The level of Trk receptors for each condition was verified by immunoblotting with anti-Trk antibodies.
as §1
Immunoprecipitated and Immunoblotting. PC12 (615) cells were maintained in DMEM containing 10% FBS supplemented with 100 units/ml penicillin, 100 μg/ml streptomycin, and 2 mM glutamine plus 200 μg/ml G418. Cells were placed in serum free medium overnight before experiments. Cell lysates from PC12(615) cells, or basal forebrain cells were incubated in lysis buffer (1% Nonidet P-40) for 4 hrs to overnight at 4° C. with anti-pan-Trk polyclonal antibody followed by incubation with protein A-Sepharose beads. Equivalent amounts of protein were analyzed for each condition.

For `CCNC(=O)[C@H]1O[C@@H](n2cnc3c(N)nc(NCCc4ccc(CCC(=O)O)cc4)nc32)[C@H](O)[C@@H]1O` [CGS 21680, 2-[(4-(2-carboxyethyl)phenylethyl)]aminoadenosine-5′-N-ethylcarboxamide], the “Activation of Akt (phospho-specific antibody)” value with Akt is recorded as “able to activate Akt”. The “Phosphorylation of TrkB receptors” value in the experiment with TrkB receptors (10 nM) is reported as “gave rise to phosphorylated TrkB receptors”. The “Activation of TrkA receptor activity” value in the experiment with TrkA receptors (1 nM, 2 hours) is listed as “verified”.

As for `Nc1ncnc2c1ncn2[C@@H]1O[C@H](CO)[C@@H](O)[C@H]1O` [adenosine], the “Activation of Akt (phospho-specific antibody)” value in the experiment with Akt is listed as “able to activate Akt”. Further, the “Phosphorylation of TrkB receptors” value in the experiment with TrkB receptors (10 μM) is on record as “gave rise to phosphorylated TrkB receptors”. Moreover, the “Concentration range of the effect upon TrkA receptor activity” value in the experiment on TrkA receptors (2 hours) is on record as “low nanomolar range; also recorded: low concentration range”. In addition, the “Time required for increase in TrkA activation” value in the experiment on TrkA receptors (adenosine 10 μM) is reported as “at least 90 minutes”. Moreover, the “Activation of TrkA receptors (tyrosine phosphorylation)” value with TrkA receptors (ligand for 2 hours, adenosine 10 μM) is “Activated TrkA receptors were observed”.

The values above are taken from patent US7169568B2, “Method for screening molecules that exert a neurotrophic effect through activation of neurotrophin receptors” (New York University, priority 2000, dated 2007).
